The values below come from US20240294531A1, “COVALENT HETEROCYCLES AND USES THEREOF” (Kumquat Biosciences Inc., priority 2022, published 2024).

Each structure is given as a SMILES string. Bounds are passed on as bounds.

Sequence of BTK wildtype protein (Q06187 2-659): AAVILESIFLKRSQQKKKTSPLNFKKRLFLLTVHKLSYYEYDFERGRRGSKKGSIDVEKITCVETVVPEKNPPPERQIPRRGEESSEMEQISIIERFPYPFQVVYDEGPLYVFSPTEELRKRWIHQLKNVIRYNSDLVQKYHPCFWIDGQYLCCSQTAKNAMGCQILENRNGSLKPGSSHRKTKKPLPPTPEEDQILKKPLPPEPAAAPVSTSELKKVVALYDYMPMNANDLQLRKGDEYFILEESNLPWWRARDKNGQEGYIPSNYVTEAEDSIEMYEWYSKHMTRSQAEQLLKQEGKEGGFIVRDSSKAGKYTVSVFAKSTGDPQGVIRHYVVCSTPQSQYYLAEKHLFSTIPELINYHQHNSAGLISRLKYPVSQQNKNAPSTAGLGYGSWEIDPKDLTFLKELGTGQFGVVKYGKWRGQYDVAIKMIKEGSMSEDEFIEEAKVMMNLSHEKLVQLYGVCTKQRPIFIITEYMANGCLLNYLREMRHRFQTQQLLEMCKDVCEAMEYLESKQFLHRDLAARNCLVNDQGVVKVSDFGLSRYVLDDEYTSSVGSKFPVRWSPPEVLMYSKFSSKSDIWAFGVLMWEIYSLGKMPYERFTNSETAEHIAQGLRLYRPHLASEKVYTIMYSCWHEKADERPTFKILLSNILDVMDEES
Sequence of BTK C481S protein (Q06187 2-659 C481S): as the sequence (Q06187 2-659) above, with C480S counted along it

The target of one assay is BTK wildtype protein (Homo sapiens (Human), UniProt Q06187). In words: BTK wildtype HTRF displacement assay. In kind it is binding. The following applies: 1-hour incubation; read-out: BTK (wt) IC50. How it is done:
(§1) The ability of a compound to bind BTK wildtype or BTK C481S proteins was measured using an HTRF displacement assay. The assay measures the ability of a compound to displace a tracer ligand bound to the active site of BTK wildtype or BTK C481 S proteins.
(§2) Test compounds were prepared as 10 mM stock solutions in DMSO (Fisher cat #BP231-100). Compounds to be assayed were dispensed using an Echo 650 acoustic dispenser (Beckman Coulter) on a 384 well plate in 6 doses applying four-fold dilutions from the highest concentration of 5 μM. N-terminal GST-tagged recombinant full-length BTK wildtype protein and BTK C481 S protein 2-659 were purchased from Carna Biosciences, Inc (Kobe, Japan). BTK wildtype or BTK C481S protein was separately incubated with compound in assay buffer containing kinase tracer 239 (Thermo Fisher) and Mab anti GST-Th (PerkinElmer). After a 1-hour incubation at room temperature, the HTRF signal was measured using SPARK plate reader (Tecan) using the TR fluorescence mode. The HTRF ratio is calculated for DMSO, no protein control and compound samples using the following equation: HTRF ratio=Emmision665/Emmision620×10^4. The signal for the no protein control samples was used to subtract background noise from the DMSO and compound samples. Background subtracted HTRF ratios are used to calculate the percent inhibition, where DMSO controls are set to 0 percent inhibition. The percent inhibition is plotted as a function of compound concentration and IC50 values were calculated from a four-parameter logistic fit in Prism v9.4 (GraphPad), where the bottom and top are constrained to 0 and 100, respectively.
In general terms: Time-resolved FRET reads energy transfer from a long-lived donor to a nearby acceptor.
As for `COc1ccc(F)cc1C(=O)NCc1ccc(-c2nn([C@@H]3CCC[C@@H](N(C)C(=O)n4cncn4)C3)c(N)c2C(N)=O)cc1` (relative stereo) [Compound 194, N-((1R,3R)-3-(5-amino-4-carbamoyl-3-(4-((5-fluoro-2-methoxybenzamido)methyl)phenyl)-1H-pyrazol-1-yl)cyclohexyl)-N-methyl-1H-1,2,4-triazole-1-carboxamide], the IC50 is ≤ 1000 nM.

As to `COc1ccc(F)cc1C(=O)NCc1ccc(-c2nn([C@@H]3CCC[C@H](N(C)C(=O)n4cncn4)C3)c(N)c2C(N)=O)cc1` (relative stereo) [Compound 284, N-((1S,3R)-3-(5-amino-4-carbamoyl-3-(4-((5-fluoro-2-methoxy-benzamido)methyl)phenyl)-1H-pyrazol-1-yl)cyclohexyl)-N-methyl-1H-1,2,4-triazole-1-carboxamide], the IC50 is ≤ 1000 nM. For the compound `CC1CC(n2nc(-c3ccc(Oc4ccccc4)cc3)c3c(N)ncnc32)CC(C)N1C(=O)n1cncn1` (stereo not drawn) [Compound 101, (4-(4-amino-3-(4-phenoxyphenyl)-1H-pyrazolo[3,4-d]pyrimidin-1-yl)-2,6-dimethylpiperidin-1-yl)(1H-1,2,4-triazol-1-yl)methanone], the IC50 was ≤ 1000 nM. Take `COc1ccc(F)cc1C(=O)NCc1ccc(-c2nn(C3CCC(N(C)C(=O)n4cncn4)C3)c(N)c2C(N)=O)cc1` (stereo not drawn) [Compound 201, N-(3-(5-amino-4-carbamoyl-3-(4-((5-fluoro-2-methoxybenzamido)methyl)phenyl)-1H-pyrazol-1-yl)cyclopentyl)-N-methyl-1H-1,2,4-triazole-1-carboxamide]: the IC50 was ≤ 1000 nM. As for `CN(C(=O)n1cncn1)C1CCC(n2nc(-c3ccc(Oc4ccccc4)cc3)c3c(N)ncnc32)C1` (stereo not drawn) [Compound 216, N-(3-(4-amino-3-(4-phenoxyphenyl)-1H-pyrazolo[3,4-d]pyrimidin-1-yl)cyclopentyl)-N-methyl-1H-1,2,4-triazole-1-carboxamide], the IC50 was ≤ 1000 nM.

For the compound `CN(C(=O)n1cncn1)C1CCCC(n2nc(-c3ccc(Oc4ccccc4)cc3)c3c(N)ncnc32)C1` (stereo not drawn) [Compound 233, N-(3-(4-amino-3-(4-phenoxyphenyl)-1H-pyrazolo[3,4-d]pyrimidin-1-yl)cyclohexyl)-N-methyl-1H-1,2,4-triazole-1-carboxamide], the IC50 was ≤ 1000 nM. With `COc1ccc(F)cc1C(=O)NCc1ccc(-c2nn(C3CCCC4(CCN4C(=O)n4cncn4)C3)c3ncnc(N)c23)cc1` (stereo not drawn) [Compound 236, N-(4-(1-(1-(1H-1,2,4-triazole-1-carbonyl)-1-azaspiro[3.5]nonan-6-yl)-4-amino-1H-pyrazolo[3,4-d]pyrimidin-3-yl)benzyl)-5-fluoro-2-methoxybenzamide], the IC50 is ≤ 1000 nM. `COc1ccc(F)cc1C(=O)NCc1ccc(-c2nn(C3CCCCC(N(C)C(=O)n4cncn4)C3)c3ncnc(N)c23)cc1` (stereo not drawn) [Compound 278, N-(3-(4-amino-3-(4-((5-fluoro-2-methoxybenzamido)methyl)phenyl)-1H-pyrazolo[3,4-d]pyrimidin-1-yl)cycloheptyl)-N-methyl-1H-1,2,4-triazole-1-carboxamide]: the half-inhibitory concentration (IC50) was ≤ 1000 nM. Turning to `NC(=O)c1c(-c2ccc(Oc3ccccc3)cc2)nn2c1NCCC2C1CCCN(C(=O)n2cncn2)C1` (stereo not drawn) [Compound 283, 7-(1-(1H-1,2,4-triazole-1-carbonyl)piperidin-3-yl)-2-(4-phenoxyphenyl)-4,5,6,7-tetrahydropyrazolo[1,5-a] pyrimidine-3-carboxamide], the IC50 was > 1000 nM.

On to `COc1ccc(F)cc1C(=O)NCc1ccc(-c2nn(C3CCCC(N(C)C(=O)n4cncn4)C3)c3ncnc(N)c23)cc1` (stereo not drawn) [Compound 290, N-(3-(4-amino-3-(4-((5-fluoro-2-methoxybenzamido)methyl)phenyl)-1H-pyrazolo[3,4-d]pyrimidin-1-yl)cyclohexyl)-N-methyl-1H-1,2,4-triazole-1-carboxamide], for which the IC50 is ≤ 1000 nM. As for `CN(C(=O)n1cncn1)C1CCC(n2nc(-c3ccc(Oc4ccccc4)cc3)c(C(N)=O)c2N)C1` (stereo not drawn) [Compound 295, N-(3-(5-amino-4-carbamoyl-3-(4-phenoxyphenyl)-1H-pyrazol-1-yl)cyclopentyl)-N-methyl-1H-1,2,4-triazole-1-carboxamide], the IC50 was ≤ 1000 nM.

With `CN(C(=O)n1cncn1)C1CCCCC(n2nc(-c3ccc(Oc4ccccc4)cc3)c3c(N)ncnc32)C1` (stereo not drawn) [Compound 314, N-(3-(4-amino-3-(4-phenoxyphenyl)-1H-pyrazolo[3,4-d]pyrimidin-1-yl)cycloheptyl)-N-methyl-1H-1,2,4-triazole-1-carboxamide], the IC50 was ≤ 1000 nM.

For the next assay, the target named is BTK C481S protein (Homo sapiens (Human), UniProt Q06187, C481S). In words: BTK C481S HTRF displacement assay. In kind it is binding. Conditions: 1-hour incubation. How it is done:
as §1, §2
The same assay was used to measure the activity of selected compounds of the formula TBM-L-hydrogen. Using the IC50 value observed for a given reversible test compound, the KI of the test compound can be assessed using the formula KI=IC50/(1+([Tracer]/Kd)), wherein the tracer concentration in the assay [Tracer] is 50 nM and the tracer Kd for BTK C481S is 54 nM.
Turning to `COc1ccc(F)cc1C(=O)NCc1ccc(-c2nn([C@@H]3CCC[C@@H](N(C)C(=O)n4cncn4)C3)c(N)c2C(N)=O)cc1` (relative stereo) [Compound 194, N-((1R,3R)-3-(5-amino-4-carbamoyl-3-(4-((5-fluoro-2-methoxybenzamido)methyl)phenyl)-1H-pyrazol-1-yl)cyclohexyl)-N-methyl-1H-1,2,4-triazole-1-carboxamide], the IC50 is ≤ 1000 nM. Still for that read-out and setting: with `COc1ccc(F)cc1C(=O)NCc1ccc(-c2nn([C@@H]3CCC[C@H](N(C)C(=O)n4cncn4)C3)c(N)c2C(N)=O)cc1` (relative stereo) [Compound 284, N-((1S,3R)-3-(5-amino-4-carbamoyl-3-(4-((5-fluoro-2-methoxy-benzamido)methyl)phenyl)-1H-pyrazol-1-yl)cyclohexyl)-N-methyl-1H-1,2,4-triazole-1-carboxamide] the figure was ≤ 1000 nM. For the compound `CC1CC(n2nc(-c3ccc(Oc4ccccc4)cc3)c3c(N)ncnc32)CC(C)N1C(=O)n1cncn1` (stereo not drawn) [Compound 101, (4-(4-amino-3-(4-phenoxyphenyl)-1H-pyrazolo[3,4-d]pyrimidin-1-yl)-2,6-dimethylpiperidin-1-yl)(1H-1,2,4-triazol-1-yl)methanone], the IC50 was ≤ 1000 nM. For `CN(C(=O)n1cncn1)C1CCC(n2nc(-c3ccc(Oc4ccccc4)cc3)c3c(N)ncnc32)C1` (stereo not drawn) [Compound 116, N-(3-(4-amino-3-(4-phenoxyphenyl)-1H-pyrazolo[3,4-d]pyrimidin-1-yl)cyclopentyl)-N-methyl-1H-1,2,4-triazole-1-carboxamide], the IC50 was ≤ 1000 nM. Consider `CN(C(=O)n1cncn1)C1CCCCC(n2nc(-c3ccc(Oc4ccccc4)cc3)c3c(N)ncnc32)C1` (stereo not drawn) [Compound 118, N-(3-(4-amino-3-(4-phenoxyphenyl)-1H-pyrazolo[3,4-d]pyrimidin-1-yl)cycloheptyl)-N-methyl-1H-1,2,4-triazole-1-carboxamide], for which the IC50 is ≤ 1000 nM. With `COc1ccc(F)cc1C(=O)NCc1ccc(-c2nn(C3CCCCC(N(C)C(=O)n4cncn4)C3)c3ncnc(N)c23)cc1` (stereo not drawn) [Compound 147, N-(3-(4-amino-3-(4-((5-fluoro-2-methoxybenzamido)methyl)phenyl)-1H-pyrazolo[3,4-d]pyrimidin-1-yl)cycloheptyl)-N-methyl-1H-1,2,4-triazole-1-carboxamide], the half-maximal inhibitory concentration (IC50) is ≤ 1000 nM.

Turning to `CN(C(=O)n1cncn1)C1CCCC(n2nc(-c3ccc(Oc4ccccc4)cc3)c3c(N)ncnc32)C1` (stereo not drawn) [Compound 160, N-(3-(4-amino-3-(4-phenoxyphenyl)-1H-pyrazolo[3,4-d]pyrimidin-1-yl)cyclohexyl)-N-methyl-1H-1,2,4-triazole-1-carboxamide], the IC50 is ≤ 1000 nM. As to `COc1ccc(F)cc1C(=O)NCc1ccc(-c2nn(C(C)CC3CCCN3C(=O)n3cncn3)c3ncnc(N)c23)cc1` (stereo not drawn) [Compound 166, N-(4-(1-(1-(1-(1H-1,2,4-triazole-1-carbonyl)pyrrolidin-2-yl)propan-2-yl)-4-amino-1H-pyrazolo[3,4-d]pyrimidin-3-yl)benzyl)-5-fluoro-2-methoxybenzamide], the IC50 was ≤ 1000 nM.

For `COc1ccc(F)cc1C(=O)NCc1ccc(-c2nn(C3CCCC(N(C)C(=O)n4cncn4)C3)c3ncnc(N)c23)cc1` (stereo not drawn) [Compound 177, N-(3-(4-amino-3-(4-((5-fluoro-2-methoxybenzamido)methyl)phenyl)-1H-pyrazolo[3,4-d]pyrimidin-1-yl)cyclohexyl)-N-methyl-1H-1,2,4-triazole-1-carboxamide], the concentration for half-maximal inhibition (IC50) is ≤ 1000 nM.

Turning to `NC(=O)c1c(-c2ccc(Oc3ccccc3)cc2)nn2c1NCCC2C1CCN1C(=O)n1cncn1` (stereo not drawn) [Compound 180, 7-(1-(1H-1,2,4-triazole-1-carbonyl)azetidin-2-yl)-2-(4-phenoxy-phenyl)-4,5,6,7-tetrahydropyrazolo [1,5-a]pyrimidine-3-carboxamide], the IC50 was > 1000 nM. Same read-out and setting: in the case of `COc1ccc(F)cc1C(=O)NCc1ccc(-c2nn(C(C)C(C)CN(C)C(=O)n3cncn3)c3ncnc(N)c23)cc1` (stereo not drawn) [Compound 189, N-(3-(4-amino-3-(4-((5-fluoro-2-methoxybenzamido)methyl)phenyl)-1H-pyrazolo[3,4-d]pyrimidin-1-yl)-2-methylbutyl)-N-methyl-1H-1,2,4-triazole-1-carboxamide] it was ≤ 1000 nM; in that of `CN(C(=O)n1cncn1)C1CCC(n2nc(-c3ccc(Oc4ccccc4)cc3)c(C(N)=O)c2N)C1` (stereo not drawn) [Compound 302, N-(3-(5-amino-4-carbamoyl-3-(4-phenoxyphenyl)-1H-pyrazol-1-yl)cyclopentyl)-N-methyl-1H-1,2,4-triazole-1-carboxamide], ≤ 1000 nM.

The assay is the same for the next values; noted with them: TBM-L-hydrogen compounds; KI=IC50/(1+([Tracer]/Kd)), [Tracer] 50 nM, Kd 54 nM.
Turning to `COc1ccc(F)cc1C(=O)NCc1ccc(-c2nn(CCNC3CC3)c3ncnc(N)c23)cc1` [reference compound], the inhibitory constant (Ki) was < 660 nM. Regarding `CCNCC1CCNc2c(C(N)=O)c(-c3ccc(Oc4ccccc4)cc3)nn21` (stereo not drawn) [reference compound], the Ki is < 1000 nM.

Turning to `COc1ccc(C)cc1C(=O)NCc1ccc(-c2nn(CC3CCCCN3)c3ncnc(N)c23)cc1` (stereo not drawn) [reference compound], the Ki is < 600 nM.

In general, IC50 refers to the concentration that inhibits the measured activity by half. In general, Ki refers to a measure of affinity in units of concentration, obtained from inhibition or displacement. A higher Ki goes with weaker binding.
